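Exposure lasted 48 hours, with cells grown in 96-well plates and compounds tested at five concentrations. GI50 = concentration required for 50% inhibition of growth.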 Active and inactive are the calls of the source. No stated cut-off is given here; in the data, active = GI50 up to about 1.1 µM and inactive = higher.
Columns and labels:
Assay in all cases: NCI anticancer screen, dose series, 48 h
RXF 393 = test system: RXF 393
COLO 205 = test system: COLO 205
786-0 = test system: 786-0
SK-MEL-2 = test system: SK-MEL-2
UACC-257 = test system: UACC-257
NCI-H226 = test system: NCI-H226
SNB-75 = test system: SNB-75
MCF7 = test system: MCF7
OVCAR-8 = test system: OVCAR-8
SN12C = test system: SN12C
MOLT-4 = test system: MOLT-4
HCT-15 = test system: HCT-15
SNB-19 = test system: SNB-19
M14 = test system: M14
TK-10 = test system: TK-10
U-251 = test system: U-251
HOP-92 = test system: HOP-92
PC-3 = test system: PC-3
T47D = test system: T47D
MDA-MB-231 = test system: MDA-MB-231

| Structure (SMILES) | GI50 (RXF 393) | GI50 (COLO 205) | GI50 (786-0) | GI50 (SK-MEL-2) | GI50 (UACC-257) | GI50 (NCI-H226) | GI50 (SNB-75) | GI50 (MCF7) | GI50 (OVCAR-8) | GI50 (SN12C) | GI50 (MOLT-4) | GI50 (HCT-15) [µM] | GI50 (SNB-19) | GI50 (M14) | GI50 (TK-10) | GI50 (U-251) | GI50 (HOP-92) | GI50 (PC-3) | GI50 (T47D) | GI50 (MDA-MB-231) |
| --- | --- | --- | --- | --- | --- | --- | --- | --- | --- | --- | --- | --- | --- | --- | --- | --- | --- | --- | --- | --- |
| Cn1sc2ccccc2c1=S | 3.08 µM (inactive) | 13.3 µM (inactive) | 3.85 µM (inactive) | 20 µM (inactive) | 8.63 µM (inactive) | 23.2 µM (inactive) | 6.82 µM (inactive) | 2.64 µM (inactive) | 9.71 µM (inactive) | 6.75 µM (inactive) | 4.04 µM (inactive) | 5.5 | 12.2 µM (inactive) | 10.4 µM (inactive) | 24.1 µM (inactive) | 4.01 µM (inactive) | 16.6 µM (inactive) |  |  |  |
| CCOC(=O)c1c(-c2ccc(O)c(OC)c2)c(C#N)c(=S)n(C2OC(CO)C(O)C(O)C2O)c1-c1ccccc1 (configuration not stated) | > 100 µM (inactive) | > 100 µM (inactive) | > 100 µM (inactive) |  | > 100 µM (inactive) | 13 µM (inactive) |  | > 100 µM (inactive) | > 100 µM (inactive) | > 100 µM (inactive) | 54.3 µM (inactive) | > 100 | > 100 µM (inactive) | > 100 µM (inactive) |  | > 100 µM (inactive) | 66.7 µM (inactive) | > 100 µM (inactive) |  |  |
| COC1OC(CBr)C(OC(c2ccccc2)(c2ccccc2)c2ccccc2)C(OC(c2ccccc2)(c2ccccc2)c2ccccc2)C1OC(c1ccccc1)(c1ccccc1)c1ccccc1 (configuration not stated) | 33.4 µM (inactive) | > 100 µM (inactive) | 19.4 µM (inactive) |  | > 100 µM (inactive) | 33.4 µM (inactive) |  | 41.7 µM (inactive) | 27.1 µM (inactive) | 41.3 µM (inactive) | > 100 µM (inactive) | > 100 | 24.3 µM (inactive) | 51.8 µM (inactive) | 28.3 µM (inactive) |  | 17.1 µM (inactive) |  | 22.6 µM (inactive) |  |
| CCCCOC(=O)NC(=O)c1cn(CCCOC(=O)CCCCCCCCC(=O)OCCCn2cc(C(=O)NC(=O)OCCCC)c(=O)n(C)c2=O)c(=O)n(C)c1=O | > 100 µM (inactive) | > 100 µM (inactive) | > 100 µM (inactive) | > 100 µM (inactive) | > 100 µM (inactive) | > 100 µM (inactive) | 58.1 µM (inactive) |  | > 100 µM (inactive) | > 100 µM (inactive) | > 100 µM (inactive) | > 100 | > 100 µM (inactive) | > 100 µM (inactive) | > 100 µM (inactive) | > 100 µM (inactive) | > 100 µM (inactive) |  |  |  |
| COC(=O)c1c(-c2ccc(Cl)cc2)cc2c3ccccc3n(C)c2c1C(=O)OC |  | > 100 µM (inactive) | > 100 µM (inactive) | > 100 µM (inactive) | 64.7 µM (inactive) | > 100 µM (inactive) |  | 38.3 µM (inactive) | > 100 µM (inactive) | > 100 µM (inactive) | 23.1 µM (inactive) | > 100 | > 100 µM (inactive) | > 100 µM (inactive) | > 100 µM (inactive) | > 100 µM (inactive) | > 100 µM (inactive) | > 100 µM (inactive) |  | > 100 µM (inactive) |
| COc1ccc(C2=NNC(c3cc4cc(Br)ccc4nc3Cl)C2)cc1 (configuration not stated) |  | 11.7 µM (inactive) | 15.9 µM (inactive) | 11.8 µM (inactive) | 12.2 µM (inactive) | 0.0107 µM (active) | 0.0631 µM (active) | 6.67 µM (inactive) |  | 7.66 µM (inactive) | 3.82 µM (inactive) |  |  | 11.5 µM (inactive) |  |  | > 25 µM (inactive) | 11.9 µM (inactive) | 0.0887 µM (active) |  |
| CCOC(OCC)(OCC)C(Br)CC (configuration not stated) | > 100 µM (inactive) | 31.8 µM (inactive) | 16.4 µM (inactive) | > 100 µM (inactive) | > 100 µM (inactive) | > 100 µM (inactive) | > 100 µM (inactive) |  | > 100 µM (inactive) | 64.9 µM (inactive) | > 100 µM (inactive) | > 10 | > 100 µM (inactive) | > 100 µM (inactive) | > 100 µM (inactive) | > 100 µM (inactive) | > 100 µM (inactive) |  |  |  |
| [O-][S+](Cc1cc2c(cc1Br)OCO2)c1ccccc1 (configuration not stated) | 40.6 µM (inactive) | 34.2 µM (inactive) | 39.1 µM (inactive) | > 100 µM (inactive) | 51.4 µM (inactive) | > 100 µM (inactive) | > 100 µM (inactive) |  | 41.4 µM (inactive) | 48 µM (inactive) | 26.5 µM (inactive) | 34.4 | > 100 µM (inactive) | 48.2 µM (inactive) | > 100 µM (inactive) | 30.3 µM (inactive) | 83.9 µM (inactive) |  |  |  |
| CCN(CC)C1CC(O[C@H]2C[C@](O)(C(=O)CO)Cc3c(O)c4c(c(O)c32)C(=O)c2c(OC)cccc2C4=O)OC(C)C1O (some centres not stated) | 0.0446 µM (active) | 0.0387 µM (active) | 0.0588 µM (active) | 0.067 µM (active) | 0.0951 µM (active) | 0.019 µM (active) | 0.028 µM (active) |  | < 0.0262 µM (active) | 0.045 µM (active) | 0.0225 µM (active) | 0.245 | 0.103 µM (active) | 0.0982 µM (active) | 0.0881 µM (active) | 0.0509 µM (active) | 0.0522 µM (active) |  |  |  |
| COC(=O)C1=C(C)N(NC(=O)OC(C)(C)C)C(=O)C1=P(c1ccccc1)(c1ccccc1)c1ccccc1 | > 100 µM (inactive) | > 100 µM (inactive) | > 100 µM (inactive) | 17.2 µM (inactive) | > 100 µM (inactive) | > 100 µM (inactive) | > 100 µM (inactive) |  | > 100 µM (inactive) | > 100 µM (inactive) | 41.4 µM (inactive) | > 100 | > 100 µM (inactive) | > 100 µM (inactive) | > 100 µM (inactive) | > 100 µM (inactive) | > 100 µM (inactive) |  |  |  |
| O=C(O)c1ccccc1C(=O)Nn1cnnc1 | > 100 µM (inactive) | > 100 µM (inactive) | > 100 µM (inactive) | > 100 µM (inactive) | > 100 µM (inactive) |  | > 100 µM (inactive) | > 100 µM (inactive) | > 100 µM (inactive) | > 100 µM (inactive) | > 100 µM (inactive) | > 100 | > 100 µM (inactive) | > 100 µM (inactive) | > 100 µM (inactive) | > 100 µM (inactive) | > 100 µM (inactive) | > 100 µM (inactive) |  | > 100 µM (inactive) |
| Cc1cc(S(=O)(=O)Nc2nc3ccsc3c(=O)n2N)c(S)cc1Cl |  | > 100 µM (inactive) | > 100 µM (inactive) | 76.2 µM (inactive) | > 100 µM (inactive) | 34.6 µM (inactive) | > 100 µM (inactive) | > 100 µM (inactive) | > 100 µM (inactive) | > 100 µM (inactive) | 64.3 µM (inactive) | 50.7 | 37.2 µM (inactive) | 68.7 µM (inactive) | > 100 µM (inactive) | 57.1 µM (inactive) |  | > 100 µM (inactive) |  | 70.1 µM (inactive) |

Reference: ChEMBL document CHEMBL1201862, “PubChem BioAssay data set” (2004)
